Experimental data reported in the CheMixHub viscosity set.
Values joined by “and” are separate entries in the source; they are usually repeats but may differ in a detail not shown here. Identical values can stand only once. ± gives the uncertainty stated by the source.

Assay: xn = mol fraction of the nth substance listed

CCCCOC(C)=O + CC(C)O
viscosity [mPa·s], 100 kPa
Details	x1 = 0.081	x1 = 0.1599	x1 = 0.24	x1 = 0.35	x1 = 0.44	x1 = 0.5601	x1 = 0.65	x1 = 0.74	x1 = 0.85	x1 = 0.9397
293.15 K	1.638 ± 0.2	1.156 ± 0.14	0.884 ± 0.11	0.725 ± 0.087	0.688 ± 0.083	0.674 ± 0.081	0.686 ± 0.083	0.686 ± 0.083	0.703 ± 0.085	0.717 ± 0.086
298.15 K	1.439 ± 0.17	1.038 ± 0.12	0.812 ± 0.098	0.684 ± 0.082	0.652 ± 0.078	0.648 ± 0.078	0.652 ± 0.078	0.652 ± 0.078	0.665 ± 0.08	0.673 ± 0.081
303.15 K	1.256 ± 0.15	0.924 ± 0.11	0.747 ± 0.09	0.643 ± 0.077	0.608 ± 0.073	0.601 ± 0.072	0.608 ± 0.073	0.616 ± 0.074	0.629 ± 0.076	0.632 ± 0.076
308.15 K	1.119 ± 0.14	0.847 ± 0.1	0.687 ± 0.083	0.592 ± 0.071	0.56 ± 0.07	0.557 ± 0.067	0.564 ± 0.068	0.564 ± 0.068	0.582 ± 0.07	0.584 ± 0.07
313.15 K	0.972 ± 0.12	0.74 ± 0.09	0.613 ± 0.074	0.536 ± 0.065	0.516 ± 0.062	0.516 ± 0.062	0.522 ± 0.063	0.525 ± 0.063	0.531 ± 0.064	0.543 ± 0.065
318.15 K	0.862 ± 0.1	0.658 ± 0.079	0.538 ± 0.065	0.482 ± 0.058	0.469 ± 0.057	0.474 ± 0.057	0.481 ± 0.058	0.487 ± 0.059	0.496 ± 0.06	0.502 ± 0.06
323.15 K	0.759 ± 0.091	0.574 ± 0.069	0.469 ± 0.057	0.431 ± 0.052	0.428 ± 0.052	0.436 ± 0.053	0.443 ± 0.053	0.451 ± 0.054	0.457 ± 0.055	0.461 ± 0.056

CCCCOC(C)=O + CCO
viscosity [mPa·s], 101 kPa
Details	x1 = 0.0995	x1 = 0.1987	x1 = 0.2996	x1 = 0.4023	x1 = 0.4982	x1 = 0.5987	x1 = 0.693	x1 = 0.7968	x1 = 0.9004
298.15 K	0.937 ± 0.012	0.835 ± 0.01	0.765 ± 0.01	0.71 ± 0.009	0.668 ± 0.008	0.647 ± 0.008	0.639 ± 0.008	0.641 ± 0.008	0.648 ± 0.007
303.15 K	0.871 ± 0.011	–	0.712 ± 0.009	0.663 ± 0.009	–	0.612 ± 0.008	0.61 ± 0.008	0.616 ± 0.008	0.621 ± 0.007
308.15 K	0.797 ± 0.011	0.719 ± 0.01	0.657 ± 0.009	0.621 ± 0.008	0.591 ± 0.008	0.582 ± 0.008	0.582 ± 0.008	0.582 ± 0.007	0.587 ± 0.007
313.15 K	0.734 ± 0.01	0.671 ± 0.009	0.621 ± 0.009	0.591 ± 0.008	0.563 ± 0.008	0.558 ± 0.008	0.555 ± 0.007	0.562 ± 0.007	–

CCCN + c1ccccc1
viscosity [mPa·s], 101 kPa
Details	x1 = 0.007866	x1 = 0.01864	x1 = 0.02795	x1 = 0.03664	x1 = 0.04697	x1 = 0.0579	x1 = 0.06586	x1 = 0.07593	x1 = 0.08436
303.15 K	0.5618 ± 0.0043	0.5605 ± 0.0043	0.5588 ± 0.0043	0.5574 ± 0.0043	0.5554 ± 0.0043	0.5534 ± 0.0043	0.552 ± 0.0042	0.5501 ± 0.0042	0.548 ± 0.0042
313.15 K	0.4898 ± 0.0039	0.4864 ± 0.0039	0.4837 ± 0.0039	0.4817 ± 0.0039	0.4766 ± 0.0039	0.4725 ± 0.0039	0.4704 ± 0.0039	0.467 ± 0.0038	0.4636 ± 0.0038

CCCCCCCC[N+](C)(C)CCOCCO.Cc1cc(Cl)ccc1OCC(=O)[O-] + CCCCCCCC[N+](C)(C)CCOCCO.COc1c(Cl)ccc(Cl)c1C(=O)[O-]
100 kPa, x1 = 0.58
Details	viscosity
293.15 K	12650 ± 4400 mPa·s and 12650 ± 970 mPa·s
303.15 K	4260 ± 280 mPa·s
313.15 K	1780 ± 94 mPa·s
323.15 K	831.5 ± 37 mPa·s
